The results in this text go back to a melting point compilation (Tetko et al.).

In general, melting point refers to the temperature, or range, at which the solid turns liquid. As to `Cc1c(Cl)c(Cl)cc(Cl)c1Cl`, the melting point came to 93.5 °C.
`Cc1ccc(-c2cc(N/N=C(/C(=O)c3cccs3)C(=O)C(F)(F)F)[nH]n2)cc1` showed a melting point of 220 °C.
`CC(=O)NC1CCCCC(NC(C)=O)CCCC1` (stereo not given) had a melting point of 296 to 297 °C.
Compound `Nc1nc(S)nc2[nH]ncc12` came in with a melting point of 300 °C.
`CCC1(C2=CC3CCC(C2)C3)C(=O)NC(=O)NC1=O` (stereo not given) showed a melting point of 213 °C.
`CC(C)[Si](C(C)C)(C(C)C)C1SCCCS1` gave a melting point of 48 °C.
Turning to `O=C1Cc2ccccc21`, the melting point was 14 °C.
`O=Cc1ccc2sccc2c1` showed a melting point of 53 to 54 °C.
For the compound `O=C(O)CCC(=O)c1ccc(Br)cc1`, the melting point was 146 to 147 °C.
As for `O=C1C(C(O)c2c(Cl)cccc2Cl)C(C(F)(F)F)=NN1c1ccccc1` (stereo not given), the melting point was 196 °C.
In turn, `Clc1ncnc2[nH]cnc12` gave a melting point of 300 °C.
The compound `COc1ccc(CC(=O)O)cc1O` gave a melting point of 128 to 130 °C.
To `CC1=Nc2ccccc2N=C(C)C1` belongs 193 °C.
Consider `O=C1CCOc2ccc(Cl)cc21`, for which the melting point amounted to 102 °C.
`CC(=O)Nc1c(C)cc(Cl)cc1Cl` showed a melting point of 174 to 176 °C.
The compound `O=C(C1=NOC2C(=O)N(c3ccccc3[N+](=O)[O-])C(=O)C12)c1ccco1` (stereo not given) registered a melting point of 209 °C.
For the compound `CCCC(CC)C1(CC)C(=O)NC(=O)NC1=O` (stereo not given), the melting point worked out at 122 °C.
`O=C(O)CCc1cc2c(cc1[N+](=O)[O-])CCC(=O)N2` had a melting point of 258 °C.
`N#CC(CCN1CCC(C(N)=O)(N2CCCCC2)CC1)(c1ccccc1)c1ccccc1` displayed a melting point of 150 °C.
`c1ccc(P(c2ccccc2)c2ccc3ccccc3c2-c2c(P(c3ccccc3)c3ccccc3)ccc3ccccc23)cc1`: the melting point is 283 °C.
Next, `N#Cc1ccc(C(Cl)C(Cl)c2cccc(C(Cl)C(Cl)c3ccc(C#N)cc3[N+](=O)[O-])c2)c([N+](=O)[O-])c1` (stereo not given): 248 °C.
Compound `Cn1c(/C(C#N)=N/Nc2c(Br)cc(Br)cc2Br)nc2ccccc21` yielded a melting point of 180 °C.
With `CCCCC(C)CC` (stereo not given), the melting point was -100 °C.
On to `Nc1ncnc2c1ncn2C1OC(COP(=O)(O)OP(=O)(O)OP(=O)(O)O)C(O)C1O` (stereo not given), for which the melting point was found to be 176 °C.
`NC(=O)c1ncccc1O`: the melting point came out at 195 °C.
In turn, `Cc1cc(C)n(CN(Cn2nc(C)cc2C)c2ccc(N(Cn3nc(C)cc3C)Cn3nc(C)cc3C)cc2)n1` returned a melting point of 175 °C.
In turn, `C=C(NC(C)=O)C(=O)O` gave a melting point of 184 to 187 °C.
Next, `COC(=O)c1sc(SC)c(S(=O)(=O)C(C)C)c1N`: 151 to 155 °C; `Cn1c(=O)c(C2=NNC(=O)C2=CNc2ccccc2)c(O)c2ccccc21`: 272 °C.
Compound `COc1ccc(-c2ccnc(S)n2)cc1` displayed a melting point of 202 °C.
To `CC(=O)C1(O)CCC2(C)C(CCC3C4CCC(=O)C4(C)CCC32)C1` (stereo not given) belongs 211 to 212 °C.
Compound `Cc1ccc2ccc3ccc(C)nc3c2n1` displayed a melting point of 160 °C.
`NCC(=O)O` yielded a melting point of 182 °C.
Compound `C1CSCS1` gave a melting point of -50 °C.
Next, `Oc1c2cccc1Cc1cccc(c1O)Cc1cccc(c1O)Cc1cccc(c1O)Cc1cccc(c1O)Cc1cccc(c1O)C2`: 417 to 418 °C; `O=C(O)c1ccc(C(=O)O)c(Br)c1`: 295 to 297 °C; `Nc1c(Cl)cccc1C(=O)O`: 190 °C.
For the compound `CC(C)(C)OC(=O)N1CCN(C(=O)OCC2c3ccccc3-c3ccccc32)C(C(=O)O)C1` (stereo not given), the melting point was in the range of 163 to 166 °C.
Turning to `CCCC(=O)c1c(C)cc(C)c(C2CC(=O)C(C(CC)=NOCC)=C(O)C2)c1C` (stereo not given), the melting point came to 80.8 °C.
`COC(=O)C1=C(C)NC(=S)NC1c1ccccc1` (stereo not given) yielded a melting point of 224 to 225 °C.
